According to ChEMBL document CHEMBL4823252 (J Med Chem, 2021):
pIC50: −log10 of the molar value.

Columns and labels:
MOLM-13 [1] = experiment: Antiproliferative activity against human MOLM-13 cells incubated for 72 hrs by Cell Counting Kit-8 assay; assay type: functional, cell-based; conditions: MOLM-13, 72 h
MOLM-13 [2] = experiment: Antiproliferative activity against human sunitinib-resistant MOLM-13 cells at 1000 nM incubated for 72 hrs by CCK8 assay relative to control; assay type: functional
MOLM-13 [3] = experiment: Antiproliferative activity against human sunitinib-resistant MOLM-13 cells at 37 nM incubated for 72 hrs by CCK8 assay relative to control; assay type: functional
MOLM-13 [4] = experiment: Antiproliferative activity against human sunitinib-resistant MOLM-13 cells at 4 nM incubated for 72 hrs by CCK8 assay relative to control; assay type: functional
MOLM-13 [5] = experiment: Antiproliferative activity against human sunitinib-resistant MOLM-13 cells at 1 nM incubated for 72 hrs by CCK8 assay relative to control; assay type: functional
MOLM-13 [6] = experiment: Antiproliferative activity against human quizartinib-resistant MOLM-13 cells at 1000 nM incubated for 72 hrs by CCK8 assay relative to control; assay type: functional
MOLM-13 [7] = experiment: Antiproliferative activity against human quizartinib-resistant MOLM-13 cells at 111 nM incubated for 72 hrs by CCK8 assay relative to control; assay type: functional
MOLM-13 [8] = experiment: Antiproliferative activity against human quizartinib-resistant MOLM-13 cells at 12 nM incubated for 72 hrs by CCK8 assay relative to control; assay type: functional
MOLM-13 [9] = experiment: Antiproliferative activity against human quizartinib-resistant MOLM-13 cells at 1 nM incubated for 72 hrs by CCK8 assay relative to control; assay type: functional
MV4-11 [10] = experiment: Induction of cell cycle arrest in human MV4-11 cells assessed as accumulation at G1 phase at 1 nM incubated for 24 hrs by flow cytometry (reference value: 64.73%); assay type: functional
MV4-11 [11] = experiment: Induction of cell cycle arrest in human MV4-11 cells assessed as accumulation at S phase at 1 nM incubated for 24 hrs by flow cytometry (reference value: 16.31%); assay type: functional
MV4-11 [12] = experiment: Induction of cell cycle arrest in human MV4-11 cells assessed as accumulation at G2/M phase at 1 nM incubated for 24 hrs by flow cytometry (reference value: 7.29%); assay type: functional
MV4-11 [13] = experiment: Induction of cell cycle arrest in human MV4-11 cells assessed as accumulation at S phase at 10 nM incubated for 24 hrs by flow cytometry (reference value: 16.31%); assay type: functional
MV4-11 [14] = experiment: Induction of cell cycle arrest in human MV4-11 cells assessed as accumulation at G2/M phase at 10 nM incubated for 24 hrs by flow cytometry (reference value: 7.29%); assay type: functional
MV4-11 [15] = experiment: Induction of cell cycle arrest in human MV4-11 cells assessed as accumulation at G1 phase at 100 nM incubated for 24 hrs by flow cytometry (reference value: 64.73%); assay type: functional
MV4-11 [16] = experiment: Induction of cell cycle arrest in human MV4-11 cells assessed as accumulation at S phase at 100 nM incubated for 24 hrs by flow cytometry (reference value: 16.31%); assay type: functional
MOLM-13 [17] = experiment: Induction of cell cycle arrest in human MOLM-13 cells assessed as accumulation at sub-G1 phase at 1 nM incubated for 24 hrs by flow cytometry (reference value: 4.24%); assay type: functional
MOLM-13 [18] = experiment: Induction of cell cycle arrest in human MOLM-13 cells assessed as accumulation at G1 phase at 1 nM incubated for 24 hrs by flow cytometry (reference value: 69.08%); assay type: functional
MOLM-13 [19] = experiment: Induction of cell cycle arrest in human MOLM-13 cells assessed as accumulation at sub-G1 phase at 10 nM incubated for 24 hrs by flow cytometry (reference value: 4.24%); assay type: functional
MOLM-13 [20] = experiment: Induction of cell cycle arrest in human MOLM-13 cells assessed as accumulation at G1 phase at 10 nM incubated for 24 hrs by flow cytometry (reference value: 69.08%); assay type: functional
MOLM-13 [21] = experiment: Induction of cell cycle arrest in human MOLM-13 cells assessed as accumulation at S phase at 10 nM incubated for 24 hrs by flow cytometry (reference value: 16.28%); assay type: functional
MOLM-13 [22] = experiment: Induction of cell cycle arrest in human MOLM-13 cells assessed as accumulation at sub-G1 phase at 100 nM incubated for 24 hrs by flow cytometry (reference value: 4.24%); assay type: functional
MOLM-13 [23] = experiment: Induction of cell cycle arrest in human MOLM-13 cells assessed as accumulation at G1 phase at 100 nM incubated for 24 hrs by flow cytometry (reference value: 69.08%); assay type: functional
MV4-11 [24] = experiment: Induction of apoptosis in human MV4-11 cells assessed as viable cells at 1 nM incubated for 24 hrs by flow cytometry (reference value: 98.26%); assay type: functional; conditions: read-out: Activity
MV4-11 [25] = experiment: Induction of apoptosis in human MV4-11 cells assessed as early apoptotic cells at 1 nM incubated for 24 hrs by flow cytometry (reference value: 0.31%); assay type: functional
MV4-11 [26] = experiment: Induction of apoptosis in human MV4-11 cells assessed as necrotic cells at 1 nM incubated for 24 hrs by flow cytometry (reference value: 0.25%); assay type: functional
MV4-11 [27] = experiment: Induction of apoptosis in human MV4-11 cells assessed as late apoptotic cells at 10 nM incubated for 24 hrs by flow cytometry (reference value: 0.58%); assay type: functional
MV4-11 [28] = experiment: Induction of apoptosis in human MV4-11 cells assessed as viable cells at 100 nM incubated for 24 hrs by flow cytometry (reference value: 98.86%); assay type: functional; conditions: read-out: Activity
MV4-11 [29] = experiment: Induction of apoptosis in human MV4-11 cells assessed as early apoptotic cells at 100 nM incubated for 24 hrs by flow cytometry (reference value: 0.31%); assay type: functional
MV4-11 [30] = experiment: Induction of apoptosis in human MV4-11 cells assessed as necrotic cells at 100 nM incubated for 24 hrs by flow cytometry (reference value: 0.25%); assay type: functional
MOLM-13 [31] = experiment: Induction of apoptosis in human MOLM-13 cells assessed as viable cells at 1 nM incubated for 24 hrs by flow cytometry (reference value: 92.83%); assay type: functional; conditions: read-out: Activity
MOLM-13 [32] = experiment: Induction of apoptosis in human MOLM-13 cells assessed as necrotic apoptotic cells at 1 nM incubated for 24 hrs by flow cytometry (reference value: 0.45%); assay type: functional
MOLM-13 [33] = experiment: Induction of apoptosis in human MOLM-13 cells assessed as late apoptotic cells at 10 nM incubated for 24 hrs by flow cytometry (reference value: 4.54%); assay type: functional
MOLM-13 [34] = experiment: Induction of apoptosis in human MOLM-13 cells assessed as necrotic cells at 10 nM incubated for 24 hrs by flow cytometry (reference value: 0.45%); assay type: functional
MOLM-13 [35] = experiment: Induction of apoptosis in human MOLM-13 cells assessed as viable cells at 100 nM incubated for 24 hrs by flow cytometry (reference value: 92.83%); assay type: functional; conditions: read-out: Activity
MOLM-13 [36] = experiment: Induction of apoptosis in human MOLM-13 cells assessed as early apoptotic cells at 100 nM incubated for 24 hrs by flow cytometry (reference value: 2.18%); assay type: functional
MOLM-13 [37] = experiment: Induction of apoptosis in human MOLM-13 cells assessed as late apoptotic cells at 100 nM incubated for 24 hrs by flow cytometry (reference value: 4.54%); assay type: functional
MOLM-13 [38] = experiment: Induction of apoptosis in human MOLM-13 cells assessed as necrotic cells at 100 nM incubated for 24 hrs by flow cytometry (reference value: 0.45%); assay type: functional
MOLM-13 [39] = experiment: Antiproliferative activity against human sunitinib-resistant MOLM-13 cells at 333 nM incubated for 72 hrs by CCK8 assay relative to control; assay type: functional

| pIC50 (MOLM-13 [1]) | SMILES | Activity (MOLM-13 [2]) [%] | Activity (MOLM-13 [3]) [%] | Activity (MOLM-13 [4]) [%] | Activity (MOLM-13 [5]) [%] | Activity (MOLM-13 [6]) [%] | Activity (MOLM-13 [7]) [%] | Activity (MOLM-13 [8]) [%] | Activity (MOLM-13 [9]) [%] | Activity (MV4-11 [10]) [%] | Activity (MV4-11 [11]) [%] | Activity (MV4-11 [12]) [%] | Activity (MV4-11 [13]) [%] | Activity (MV4-11 [14]) [%] | Activity (MV4-11 [15]) [%] | Activity (MV4-11 [16]) [%] | Activity (MOLM-13 [17]) [%] | Activity (MOLM-13 [18]) [%] | Activity (MOLM-13 [19]) [%] | Activity (MOLM-13 [20]) [%] | further results |
| --- | --- | --- | --- | --- | --- | --- | --- | --- | --- | --- | --- | --- | --- | --- | --- | --- | --- | --- | --- | --- | --- |
| 7.16 | CCN(CC)CCNC(=O)c1c(C)[nH]c(/C=C2\C(=O)Nc3ccc(F)cc32)c1C [SUNITINIB] | 25.9 | 2.6 | 0.9 | 5.3 | 26.6 | 0.5 | -1.1 | 0.5 | 66.78 | 13.27 | 5.86 | 2.69 | 2.53 | 60.29 | 3.91 | 6.13 | 65.44 | 24.17 | 63.75 | Activity (MOLM-13 [21]): 5.58%; Activity (MOLM-13 [22]): 49.02%; Activity (MOLM-13 [23]): 41.02%; viability at 0.001 µM (MV4-11 [24]): 98.4%; Activity (MV4-11 [25]): 0.29%; Activity (MV4-11 [26]): 0.32%; Activity (MV4-11 [27]): 6.58%; viability at 0.1 µM (MV4-11 [28]): 80.1%; Activity (MV4-11 [29]): 9.64%; Activity (MV4-11 [30]): 1.71%; viability at 0.001 µM (MOLM-13 [31]): 92.5%; Activity (MOLM-13 [32]): 0.24%; Activity (MOLM-13 [33]): 9.47%; Activity (MOLM-13 [34]): 0.4%; viability at 0.1 µM (MOLM-13 [35]): 44.3%; Activity (MOLM-13 [36]): 31.1%; Activity (MOLM-13 [37]): 23.49%; Activity (MOLM-13 [38]): 1.14%; Activity (MOLM-13 [39]): 6.3% |
| 7.45 | Cc1c(NC(=O)CCN2CCCC2)c[nH]c1/C=C1\C(=O)Nc2ccc(F)cc21 | 67.8 | 4.7 | 3.3 | -4.2 | 60.3 | 2.9 | 2.6 | 1.5 | 69.79 | 11.6 | 3.98 | 2.41 | 2 | 62.23 | 4.06 | 6.76 | 68.95 | 30.16 | 59.1 | Activity (MOLM-13 [21]): 4.63%; Activity (MOLM-13 [22]): 42.35%; Activity (MOLM-13 [23]): 47.75%; viability at 0.001 µM (MV4-11 [24]): 97.2%; Activity (MV4-11 [25]): 0.39%; Activity (MV4-11 [26]): 1.38%; Activity (MV4-11 [27]): 6.55%; viability at 0.1 µM (MV4-11 [28]): 71.7%; Activity (MV4-11 [29]): 17.98%; Activity (MV4-11 [30]): 1.57%; viability at 0.001 µM (MOLM-13 [31]): 91.8%; Activity (MOLM-13 [32]): 0.22%; Activity (MOLM-13 [33]): 14.5%; Activity (MOLM-13 [34]): 0.52%; viability at 0.1 µM (MOLM-13 [35]): 43.8%; Activity (MOLM-13 [36]): 34.68%; Activity (MOLM-13 [37]): 20.79%; Activity (MOLM-13 [38]): 0.75%; Activity (MOLM-13 [39]): 18.6% |
